This test addresses GTPase KRas [G12C] (Homo sapiens, UniProt P01116, G12C). Briefly: KRAS G12C-GDP Exchange Assay. How it is done: 1. […] 2. […] The IC50 (median inhibitory concentration) of the compound was obtained by the following non-linear fitting formula: Y=Bottom+(Top−Bottom)/(1+10^((Log IC50−X)*Hill Slope)), and the data were analyzed by Graphpad 6-0 software.

This passage reports IC50 results from BindingDB's records for patent US20240109893 (Shanghai Kechow Pharma, 2024).

Sequence of GTPase KRas [G12C] (P01116 whole entry G12C): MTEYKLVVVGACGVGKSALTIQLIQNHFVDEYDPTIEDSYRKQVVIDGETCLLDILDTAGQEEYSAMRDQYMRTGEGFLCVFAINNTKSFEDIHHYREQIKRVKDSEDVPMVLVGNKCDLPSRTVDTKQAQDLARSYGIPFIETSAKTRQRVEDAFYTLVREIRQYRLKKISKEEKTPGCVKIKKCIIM

As a reminder, the IC50 is the point on the concentration scale where inhibition reaches its midpoint. A higher IC50 goes with lower potency. On to `C=CC(=O)N1CCN(c2nc(OC[C@@H]3CCCN3C)nc3cc(-c4cccc5cccc(Cl)c45)c(F)cc23)C[C@@H]1CC#N` [US20240109893, Example 394], for which the IC50 stood at 1.44 nM. This lies in the single-digit nanomolar range.
